Experimental data: ChEMBL document CHEMBL1201861, “Genomics of Drug Sensitity in Cancer screening data, Wellcome Trust Sanger Institute”
pIC50: −log10 of the molar value.

Columns and labels:
Assay in all cases: cells
COR-L88 = format: functional, cell-based; conditions: Homo sapiens;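 also: growth inhibition of COR-L88 cells, read out with a cell viability assay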
Description: SANGER: Inhibition of human COR-L88 cell growth in a cell viability assay.

EW-11 = format: functional, cell-based, Homo sapiens; conditions: Homo sapiens, EW-11;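 also: growth inhibition of human EW-11 cells, measured with a cell viability assay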
Description: SANGER: Inhibition of human EW-11 cell growth in a cell viability assay.

GI-ME-N = format: functional, cell-based, Homo sapiens; conditions: Homo sapiens, GI-ME-N;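 also: growth inhibition of human GI-ME-N cells, read out with a cell viability assay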
Description: SANGER: Inhibition of human GI-ME-N cell growth in a cell viability assay.

GT3TKB = format: functional, cell-based, Homo sapiens; conditions: Homo sapiens, GT3TKB;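 also: growth inhibition of the cell line, read out with a cell viability assay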
Description: SANGER: Inhibition of human GT3TKB cell growth in a cell viability assay.

HCC 2998 = format: functional, cell-based, Homo sapiens; conditions: Homo sapiens, HCC 2998;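 also: growth inhibition of human HCC2998 cells, measured with a cell viability read-out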
Description: SANGER: Inhibition of human HCC2998 cell growth in a cell viability assay.

IST-MEL1 = format: functional, cell-based, Homo sapiens; conditions: Homo sapiens, IST-MEL1;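 also: growth inhibition of the cell line, read out with a cell viability assay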
Description: SANGER: Inhibition of human IST-MEL1 cell growth in a cell viability assay.

IST-MES1 = format: functional, cell-based, Homo sapiens; conditions: Homo sapiens, IST-MES1;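 also: growth inhibition of IST-MES1 cells, measured with a cell viability assay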
Description: SANGER: Inhibition of human IST-MES1 cell growth in a cell viability assay.

KINGS-1 = format: functional, cell-based, Homo sapiens; conditions: Homo sapiens, KINGS-1;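 also: cell viability assay measuring suppression of KINGS-1 cell growth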
Description: SANGER: Inhibition of human KINGS-1 cell growth in a cell viability assay.

LB996-RCC = format: functional, cell-based; conditions: Homo sapiens
Description: SANGER: Inhibition of human LB996-RCC cell growth in a cell viability assay.

Lu-65 = format: functional, cell-based; conditions: Homo sapiens;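 also: growth inhibition of Lu-65 cancer cells, read out by a cell viability assay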
Description: SANGER: Inhibition of human LU-65 cell growth in a cell viability assay.

MLMA = format: functional, cell-based, Homo sapiens; conditions: Homo sapiens, MLMA;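 also: growth inhibition of MLMA cells (human), determined through a cell viability readout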
Description: SANGER: Inhibition of human MLMA cell growth in a cell viability assay.

NB69 = format: functional, cell-based, Homo sapiens; conditions: Homo sapiens, NB69;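 also: growth inhibition of NB69 cells, determined by a cell viability assay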
Description: SANGER: Inhibition of human NB69 cell growth in a cell viability assay.

NCI-H1395 = format: functional, cell-based, Homo sapiens; conditions: Homo sapiens, NCI-H1395;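 also: cell viability assay read-out quantifying reduced proliferation of human NCI-H1395 cells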
Description: SANGER: Inhibition of human NCI-H1395 cell growth in a cell viability assay.

NCI-H69 = format: functional, cell-based; conditions: Homo sapiens;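 also: growth inhibition of the cell line, read out with a cell viability assay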
Description: SANGER: Inhibition of human NCI-H69 cell growth in a cell viability assay.

NCI-N87 = format: functional, cell-based, Homo sapiens; conditions: Homo sapiens, NCI-N87;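 also: growth inhibition of human NCI-N87 cells, read out with a cell viability assay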
Description: SANGER: Inhibition of human NCI-N87 cell growth in a cell viability assay.

OMC-1 = format: functional, cell-based, Homo sapiens; conditions: Homo sapiens, OMC-1;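 also: growth inhibition of the OMC-1 cell line, measured by a cell viability assay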
Description: SANGER: Inhibition of human OMC-1 cell growth in a cell viability assay.

QIMR-WIL = format: functional, cell-based; conditions: Homo sapiens;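 also: growth inhibition of QIMR-WIL cells, read out with a cell viability assay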
Description: SANGER: Inhibition of human QIMR-WIL cell growth in a cell viability assay.

SF-126 = format: functional, cell-based, Homo sapiens; conditions: Homo sapiens, SF-126;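 also: growth inhibition of human SF126 cells, read out with a cell viability assay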
Description: SANGER: Inhibition of human SF126 cell growth in a cell viability assay.

SW684 = format: functional, cell-based, Homo sapiens; conditions: Homo sapiens, SW684;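 also: growth inhibition of human SW684 cells, measured by a cell viability assay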
Description: SANGER: Inhibition of human SW684 cell growth in a cell viability assay.

TGBC1TKB = format: functional, cell-based, Homo sapiens; conditions: Homo sapiens, TGBC1TKB;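 also: growth inhibition of TGBC1TKB cells, read out by a cell viability assay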
Description: SANGER: Inhibition of human TGBC1TKB cell growth in a cell viability assay.

UACC-257 = format: functional, cell-based, Homo sapiens; conditions: Homo sapiens, UACC-257
Description: SANGER: Inhibition of human UACC-257 cell growth in a cell viability assay.

VA-ES-BJ = format: functional, cell-based, Homo sapiens; conditions: Homo sapiens, VA-ES-BJ;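 also: growth inhibition of the VA-ES-BJ cell line, read out by a cell viability assay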
Description: SANGER: Inhibition of human VA-ES-BJ cell growth in a cell viability assay.

SMILES | pIC50 (COR-L88) | pIC50 (EW-11) | pIC50 (GI-ME-N) | pIC50 (GT3TKB) | pIC50 (IST-MEL1) | pIC50 (IST-MES1) | pIC50 (KINGS-1) | pIC50 (LB996-RCC) | pIC50 (Lu-65) | pIC50 (MLMA) | pIC50 (NB69) | pIC50 (NCI-H1395) | pIC50 (NCI-H69) | pIC50 (OMC-1) | pIC50 (QIMR-WIL) | pIC50 (SF-126) | pIC50 (SW684) | pIC50 (TGBC1TKB) | pIC50 (UACC-257) | pIC50 (VA-ES-BJ) | further results
C=C1C(=O)O[C@@H]2C3O[C@]3(C)CC/C=C(\C)CC[C@@H]12 (stereo partly drawn) | < 5.30 | < 5.30 | < 5.30 | < 5.30 | < 5.30 | < 5.30 | < 5.30 | < 5.30 | < 5.30 | < 5.30 | < 5.30 | < 5.30 | < 5.30 | < 5.30 | < 5.30 | < 5.30 | < 5.30 | < 5.30 | < 5.30 | < 5.30 | pIC50 (HCC 2998): < 5.30; pIC50 (NCI-N87): < 5.30
CC1=C2C[C@H]3[C@@H](CC=C4C[C@@H](O)CC[C@@]43C)[C@@H]2CC[C@]12O[C@@H]1C[C@H](C)CN[C@H]1[C@H]2C [CYCLOPAMINE] | < 4.80 | < 4.80 | < 4.80 | < 4.80 | < 4.80 | < 4.80 | < 4.80 | < 4.80 | < 4.80 | < 4.80 | < 4.80 | < 4.80 | < 4.80 | < 4.80 | < 4.80 | < 4.80 | < 4.80 | < 4.80 | < 4.80 | < 4.80 | pIC50 (HCC 2998): < 4.80
CS(=O)(=O)CCNCc1ccc(-c2ccc3ncnc(Nc4ccc(OCc5cccc(F)c5)c(Cl)c4)c3c2)o1 [LAPATINIB] | < 5.70 | < 5.70 | < 5.70 | < 5.70 | < 5.70 | < 5.70 | < 5.70 | 5.87 | < 5.70 | < 5.70 | < 5.70 | < 5.70 | < 5.70 | < 5.70 | < 5.70 | < 5.70 | < 5.70 | < 5.70 | < 5.70 | < 5.70 | pIC50 (HCC 2998): < 5.70
CCc1nc(N)nc(N)c1-c1ccc(Cl)cc1 [PYRIMETHAMINE] | < 4.70 | < 4.70 | 5.85 | < 4.70 | 5.36 | < 4.70 | < 4.70 | < 4.70 | 4.96 | < 4.70 | < 4.70 | < 4.70 | < 4.70 | < 4.70 | 5.18 | < 4.70 | < 4.70 | < 4.70 | 5.42 | 4.82 | pIC50 (HCC 2998): 5.24
O=C(/C=C/c1ccccc1)NC(NC(=S)Nc1cccc2cccnc12)C(Cl)(Cl)Cl (stereo not drawn) [SALUBRINAL] | < 4.80 | < 4.80 | < 4.80 | < 4.80 | < 4.80 | < 4.80 | < 4.80 | < 4.80 | < 4.80 | < 4.80 | < 4.80 | < 4.80 | < 4.80 | < 4.80 | < 4.80 | < 4.80 | < 4.80 | < 4.80 | < 4.80 | < 4.80 | pIC50 (HCC 2998): < 4.80
CN1CCN(CCOc2cc(OC3CCOCC3)c3c(Nc4c(Cl)ccc5c4OCO5)ncnc3c2)CC1 [SARACATINIB] | < 5.70 | < 5.70 | < 5.70 | < 5.70 | < 5.70 | < 5.70 | < 5.70 | 6.35 | < 5.70 | < 5.70 | 5.86 | < 5.70 | < 5.70 | < 5.70 | < 5.70 | < 5.70 | < 5.70 | < 5.70 | < 5.70 | < 5.70 | –
CO[C@H]1C[C@@H]2CC[C@@H](C)[C@@](O)(O2)C(=O)C(=O)N2CCCC[C@H]2C(=O)O[C@H]([C@H](C)C[C@@H]2CC[C@@H](O)[C@H](OC)C2)CC(=O)[C@H](C)/C=C(\C)[C@@H](O)[C@@H](OC)C(=O)[C@H](C)C[C@H](C)/C=C/C=C/C=C/1C [SIROLIMUS] | < 7.00 | < 7.00 | < 7.00 | < 7.00 | < 7.00 | < 7.00 | 7.29 | 7.03 | < 7.00 | < 7.00 | < 7.00 | < 7.00 | < 7.00 | < 7.00 | 7.93 | 7.52 | < 7.00 | 8.57 | < 7.00 | 9.14 | pIC50 (NCI-N87): < 7.00
CNC(=O)c1cc(Oc2ccc(NC(=O)Nc3ccc(Cl)c(C(F)(F)F)c3)cc2)ccn1 [SORAFENIB] | < 5.40 | < 5.40 | < 5.40 | < 5.40 | < 5.40 | < 5.40 | < 5.40 | < 5.40 | < 5.40 | < 5.40 | < 5.40 | < 5.40 | < 5.40 | < 5.40 | < 5.40 | 5.79 | < 5.40 | < 5.40 | < 5.40 | < 5.40 | pIC50 (HCC 2998): 6.05
CCC(=O)N1CCN(c2ccc(-n3c(=O)ccc4cnc5ccc(-c6cnc7ccccc7c6)cc5c43)cc2C(F)(F)F)CC1 [TORIN1] | 5.95 | < 5.92 | 6.74 | 6.96 | 7.75 | 6.63 | 7.24 | 7.94 | < 5.92 | 7.17 | 6.49 | < 5.92 | 6.30 | 7.11 | 7.09 | 7.36 | < 5.92 | 8.42 | 7.01 | 8.01 | –
Cc1cc(Nc2cc(N3CCN(C)CC3)nc(Sc3ccc(NC(=O)C4CC4)cc3)n2)n[nH]1 [TOZASERTIB] | < 5.70 | < 5.70 | < 5.70 | 5.89 | < 5.70 | < 5.70 | < 5.70 | < 5.70 | < 5.70 | < 5.70 | < 5.70 | < 5.70 | < 5.70 | < 5.70 | 6.37 | 6.02 | < 5.70 | < 5.70 | < 5.70 | 6.70 | –
